In one assay the test system is CYP-induced cystitis. Briefly: Follow-up up to 10 days after discontinuation of treatment (body weight, survival). In kind it is in vivo.
For assay [1], the system named is CYP-induced visceral pain. The assay can be described thus: Chronic administration in CYP-induced visceral pain in rats (Von Frey withdrawal threshold). In kind it is in vivo, rat. As for the experimental part:
Cyclophosphamide, 75 mg/kg i.p. for 3 times, every 3rd day, was dissolved in distilled water and administered to animals by i.p. route (volume 5 mL/kg). Appropriate weight of Compd. 1 or Compd. 2 was dissolved in saline, all doses of test compounds were administered by oral gavage (volume 2 mL/kg).
On the day of the experiment, each rat was placed individually in a clear plastic testing box with a grid floor and allowed to acclimatize for at least 10 min. Visceral sensitivity in response to mechanical stimuli was determined using Von Frey monofilaments (1-2-4-8-15-26-60-100 g) applied in the lower abdominal area (close to the urinary bladder) and on both hind paws plantar surface (to evaluate referred pain).
Each Von Frey monofilament was applied 5 times at the level of abdomen and 3 times at the level of each paw, in an ascending order of strength at interval of 5 sec. A stimulus-induced response was considered positive when the paw was sharply withdrawn, paw licking occurred, or the animal flinched upon removal of the filament.
• before CYP administration (in order to acquire basal values) • after CYP administration and before treatment, to verify the pathology (in order to acquire pre-treatment values) • after chronic treatment, about 18 hours after last administration of Compd. 1 (in order to acquire post-treatment values). • after chronic treatment, 2 hours after the last administration of Compd. 1 (in order to acquire post-treatment values after chronic+acute administration)
Compd. 1 or vehicle was administered p.o. to animals twice daily (according to the pharmacokinetic profile of the compound) for 6 days, starting from 24 hours after last treatment with CYP, when painful symptoms were well established. Nociceptive hypersensitivity was evaluated about 18 hours after the last administration of Compd. 1 (or vehicle) in order to evaluate the effect of chronic administration, or a further dosage of compound was administered and evaluation carried out 2 hours thereafter, in order to compare with acute protocol, described in Example 1.

The test system of assay [2] is CYP-induced visceral pain. Briefly: Acute administration in CYP-induced visceral pain in rats (Von Frey mechanical threshold). In kind it is in vivo, rat. How it is done:
Female Sprague Dawley rats (Crl:CD(SD)BR, 250-350 g) from Charles River Italy were used in these experiments. Animals were housed with free access to food and water and maintained on a forced 12 hours light-dark cycle at 22-24° C. for at least one week before the experiments were carried out. The animals were handled according to internationally accepted principles for care of laboratory animals (E.E.C. Council Directive 86/609, […]. 18, 1986). Cyclophosphamide, 75 mg/kg i.p. for 3 times, every 3rd day, was dissolved in distilled water and administered to animals by i.p. route (volume 5 mL/kg). Appropriate weight of Compd. 1 or Compd. 2 was dissolved in saline, all doses of test compounds were administered by oral gavage (volume 2 mL/kg). On the day of the experiment, each rat was placed individually in a clear plastic testing box with a grid floor and allowed to acclimatize for at least 10 min. Visceral sensitivity in response to mechanical stimuli was determined using Von Frey monofilaments (1-2-4-8-15-26-60-100 g) applied in the lower abdominal area (close to the urinary bladder) and on both hind paws plantar surface (to evaluate referred pain). Each Von Frey monofilament was applied 5 times at the level of abdomen and 3 times at the level of each paw, in an ascending order of strength at interval of 5 sec. A stimulus-induced response was considered positive when the paw was sharply withdrawn, paw licking occurred, or the animal flinched upon removal of the filament. Behavioral testing on animals was performed at 3 different times: • before CYP administration (in order to acquire basal values) • after CYP administration, before treatment with the test compound, to verify the pathology (in order to acquire pre-treatment values) • after CYP administration, after treatment (in order to acquire post-treatment values) […] The test was performed in blind. Compd. 1 and Compd. […]

Assay [3] has as its system CYP-induced urinary bladder cystitis. The assay can be described thus: Microscopic examination of urinary bladders after chronic administration (histology, immunohistochemistry). Type of assay: in vivo, rat. An excerpt:
At the end of the efficacy study of chronic administration, the urinary bladders were opened, placed in 10% buffered formalin and stored at room temperature until hystomorphological analysis.
Treatment with Compd. […] The induced lesions consisted of apoptosis, erosions of the mucosa, mitoses of the mucosal cells, mucosal hyperplasia, infiltration of inflammatory cells and micro-hemorrhages. Caspase 3 and caspase 9 expression (markers of apoptosis) as well as Ki67 expression (marker for cell proliferation) were reduced in the group treated with Compd. 1.

Where [4] appears, read: 7 mg/kg twice daily p.o. for 6 days, about 18 hours after last administration.
Setting [5] is: immunohistochemistry, versus CYP group.

Molecules are shown by their SMILES. Where “and” joins values, the source holds several entries; their conditions need not be identical. Equal values may be shown once. Entries after “also recorded” stand apart in the source; their conditions may differ.

Take `C[C@H](C(=O)O)c1ccc(Nc2nc(C(F)(F)F)cs2)cc1` [Compd. 1, (2S)-2-(4-{[4-(trifluoromethyl)-1,3-thiazol-2-yl]amino}phenyl) propanoic acid]: in the assay on CYP-induced cystitis (vehicle-treated 50%), the survival amounted to 65%. Also, the body weight recovery result in the assay on CYP-induced cystitis (versus vehicle-treated animals) is “body weight recovery faster than vehicle-treated animals”. The “painful visceral symptoms in both evaluated areas” value in assay [1] (7 mg/kg twice daily p.o. for 6 days plus one further dose, 2 hours following the last administration) was “fully abolished the painful visceral symptoms in both evaluated areas”. Moreover, in assay [1] (setting [4]), the “nociceptive hypersensitivity in hind-paws plantar surface” value is recorded as “completely reverses the nociceptive hypersensitivity in hind-paws plantar surface”. Further, in assay [1] (setting [4]), the “withdrawal thresholds in the abdomen” value was “almost complete recovery of withdrawal thresholds in the abdomen; also recorded: almost complete increase in withdrawal thresholds in the abdomen”. The “withdrawal thresholds, abdomen and hind paws” value in assay [2] (1 mg/kg p.o., 2 hours after administration, versus pre-treatment) was “not significantly different from the pretreatment values”. Besides, the “mechanical threshold, abdomen and hind paws” value in assay [2] (3 mg/kg p.o., 2 hours after administration, versus pre-treatment) was “statistical significant increase of mechanical threshold in both the areas evaluated”; in assay [2] (7 mg/kg p.o., 2 hours after administration, versus pre-treatment) it was “statistical significant reduction of painful hypersensitivity in both the abdominal and plantar surface”; in assay [2] (10 mg/kg p.o., 2 hours after administration, versus pre-treatment) it was “statistically significant increase in mechanical threshold in both the abdomen and paws area; also recorded: statistical significant reduction of painful hypersensitivity in both the abdominal and plantar surface”; in assay [2] (30 mg/kg p.o., 2 hours after administration, versus pre-treatment), “statistically significant increase in mechanical threshold in both the abdomen and paws area”. The same molecule registered an MED in assay [2] (p.o., acute administration) of 3 mg/kg. In addition, the “inflammatory, degenerative and proliferative lesions of the urinary bladder” value in assay [3] (7 mg/kg oral twice a day for 6 days after CYP) was “clearly reduced or reversed the inflammatory, degenerative and proliferative lesions”. Further, the “Incidence: Apoptosis epithelial cell, urinary bladder” value in assay [3] (animals of 10/group, 7 mg/kg oral twice a day for 6 days after CYP) is 3/10 and 3. The “Caspase 3 and caspase 9 expression (markers of apoptosis)” value in assay [3] (setting [5]) is “reduced”. Further, the “Ki67 expression (marker for cell proliferation)” value in assay [3] (setting [5]) was “reduced; also recorded: lower grade of positivity”.
